Converted amounts (≈) assume the structure as drawn.
Tests used:
Type in all cases: cell-based
[1] = system: Staphylococcus aureus FS 289; assay: Minimum Inhibitory Concentration, Staphylococcus aureus FS 289; conditions: Staphylococcus aureus FS 289, strain resistant to penicillin; for MIC: FS289, read-out: Minimum Inhibitory Concentration
Protocol: (§1) anti-microbial activity tests were carried out on the compounds obtained in the Examples.
*Staphylococcus aureus FS 289: strain resistant to penicillin

[2] = system: Pseudomonas aeruginosa 104; assay: Minimum Inhibitory Concentration, Pseudomonas aeruginosa 104; conditions: Pseudomonas aeruginosa 104; for MIC: read-out: Minimum Inhibitory Concentration
Protocol: as §1

[3] = system: Enterobacter aerogeneus No. 75; assay: Minimum Inhibitory Concentration, Enterobacter aerogeneus No. 75; conditions: Enterobacter aerogeneus No. 75; for MIC: read-out: Minimum Inhibitory Concentration
Protocol: as §1

[4] = system: Escherichia coli NIHJ; assay: Minimum Inhibitory Concentration, Escherichia coli NIHJ; conditions: Escherichia coli NIHJ; for MIC: read-out: Minimum Inhibitory Concentration
Protocol: as §1

[5] = system: Serratia No. 72; assay: Minimum Inhibitory Concentration, Serratia No. 72
Protocol: as §1

[6] = system: Staphylococcus aureus 209 P; assay: Minimum Inhibitory Concentration, Staphylococcus aureus 209 P; conditions: Staphylococcus aureus 209 P; for MIC: read-out: Minimum Inhibitory Concentration
Protocol: as §1

[7] = system: Proteus vulgaris HX 19; assay: Minimum Inhibitory Concentration, Proteus vulgaris HX 19; conditions: Proteus vulgaris HX 19; for MIC: HX19, read-out: Minimum Inhibitory Concentration
Protocol: as §1

[8] = system: Klebsiella pneumoniae 602; assay: Minimum Inhibitory Concentration, Klebsiella pneumoniae 602; conditions: for MIC: Klebsiella pneumoniae, 602, Klebsiella pneumoniae 602, read-out: Minimum Inhibitory Concentration
Protocol: as §1

Structure (SMILES) | MIC [1] | MIC [2] | MIC [3] | MIC [4] | MIC [5] | MIC [6] | MIC [7] | MIC [8] | Minimum Inhibitory Concentration [1] | Minimum Inhibitory Concentration [2] | Minimum Inhibitory Concentration [3] | Minimum Inhibitory Concentration [4] | Minimum Inhibitory Concentration [5] | Minimum Inhibitory Concentration [6] | Minimum Inhibitory Concentration [7] | Minimum Inhibitory Concentration ([8]; Klebsiella pneumoniae 602)
Cn1nnnc1SCC1=C(C(=O)O)N2C(=O)C(NC(=O)C(NC(=O)c3cnc4c(O)ccnc4c3O)c3ccc(O)cc3)C2SC1 (centres unmarked) [Example 175] | 12.5 µg/mL (≈ 18.8 µM) | 3.13 µg/mL (≈ 4.7 µM) | 6.25 µg/mL (≈ 9.39 µM) | 3.13 µg/mL (≈ 4.7 µM) | 12.5 µg/mL (≈ 18.8 µM) | 0.78 µg/mL (≈ 1.17 µM) | 0.39 µg/mL (≈ 0.586 µM) | 3.13 µg/mL (≈ 4.7 µM) |  |  |  |  |  |  |  | 
CSc1ccc2ncc(C(=O)N[C@@H](C(=O)N[C@@H]3C(=O)N4C(C(=O)O)=C(CSc5nnc(C)s5)CS[C@H]34)c3cccc(NC(N)=O)c3)c(O)c2n1 [Example 40] | 6.25 µg/mL (≈ 8.29 µM) | 3.13 µg/mL (≈ 4.15 µM) | 6.25 µg/mL (≈ 8.29 µM) | 3.13 µg/mL (≈ 4.15 µM) | 12.5 µg/mL (≈ 16.6 µM) | 0.78 µg/mL (≈ 1.03 µM) | 0.1 µg/mL (≈ 0.133 µM) | 1.56 µg/mL (≈ 2.07 µM) |  |  |  |  |  |  |  | 
Nc1ccc(C(NC(=O)c2cnc3cccnc3c2O)C(=O)NC2C(=O)N3C(C(=O)O)=C(CSc4nnc(CO)s4)CSC23)cc1 (centres unmarked) [Example 81] | 6.25 µg/mL (≈ 9.18 µM) | 3.13 µg/mL (≈ 4.6 µM) | 3.13 µg/mL (≈ 4.6 µM) | 1.56 µg/mL (≈ 2.29 µM) | 12.5 µg/mL (≈ 18.4 µM) | 1.56 µg/mL (≈ 2.29 µM) | 0.1 µg/mL (≈ 0.147 µM) | 3.13 µg/mL (≈ 4.6 µM) |  |  |  |  |  |  |  | 
O=C(O)C1=C(CSc2nncs2)CSC2C(NC(=O)[C@H](NC(=O)c3cnc4cccnc4c3O)c3ccc(O)cc3)C(=O)N12 (some centres unmarked) [Example 130] | 3.13 µg/mL (≈ 4.8 µM) | 3.13 µg/mL (≈ 4.8 µM) | 3.13 µg/mL (≈ 4.8 µM) | 1.56 µg/mL (≈ 2.39 µM) | 12.5 µg/mL (≈ 19.2 µM) | 0.78 µg/mL (≈ 1.2 µM) | 0.1 µg/mL (≈ 0.153 µM) | 1.56 µg/mL (≈ 2.39 µM) |  |  |  |  |  |  |  | 
CSc1ncc2c(O)c(C(=O)NC(C(=O)NC3C(=O)N4C(C(=O)[O-])=C(COC(C)=O)CSC34)c3ccc(O)cc3)cnc2n1.[Na+] (centres unmarked) [Example 137] |  |  |  |  |  |  |  |  | 12.5 µg/mL | 12.5 µg/mL | 50 µg/mL | 12.5 µg/mL | 100 µg/mL | 1.56 µg/mL | 1.56 µg/mL | 12.5 µg/mL
Cn1nnnc1SCC1=C(C(=O)O)N2C(=O)C(NC(=O)C(NC(=O)c3cnc4cncnc4c3O)c3cccc(N)c3)C2SC1 (centres unmarked) [Example 72] | 6.25 µg/mL (≈ 9.62 µM) | 6.25 µg/mL (≈ 9.62 µM) | 12.5 µg/mL (≈ 19.2 µM) | 3.13 µg/mL (≈ 4.82 µM) | 50 µg/mL (≈ 77 µM) | 0.78 µg/mL (≈ 1.2 µM) | 0.2 µg/mL (≈ 0.308 µM) | 6.25 µg/mL (≈ 9.62 µM) |  |  |  |  |  |  |  | 
Nc1ccc(C(NC(=O)c2cnccc2O)C(=O)NC2C(=O)N3C(C(=O)O)=C(CSc4nnc(CO)s4)CSC23)cc1 (centres unmarked) [Example 83] | 6.25 µg/mL (≈ 9.93 µM) | 6.25 µg/mL (≈ 9.93 µM) | 12.5 µg/mL (≈ 19.9 µM) | 6.25 µg/mL (≈ 9.93 µM) | 50 µg/mL (≈ 79.4 µM) | 0.39 µg/mL (≈ 0.619 µM) | 0.2 µg/mL (≈ 0.318 µM) | 6.25 µg/mL (≈ 9.93 µM) |  |  |  |  |  |  |  | 
CC(=O)OCC1=C(C(=O)O)N2C(=O)[C@@H](NC(=O)[C@H](NC(=O)c3cnc(O)nc3O)c3ccc(NC(N)=O)cc3)[C@H]2SC1 [Example 6] | 6.25 µg/mL (≈ 10.4 µM) | 12.5 µg/mL (≈ 20.8 µM) | 25 µg/mL (≈ 41.6 µM) | 12.5 µg/mL (≈ 20.8 µM) | 200 µg/mL (≈ 332 µM) | 0.39 µg/mL (≈ 0.648 µM) | 0.2 µg/mL (≈ 0.332 µM) | 12.5 µg/mL (≈ 20.8 µM) |  |  |  |  |  |  |  | 
O=C(O)C1=C(CSc2nnc(CO)s2)CSC2C(NC(=O)C(NC(=O)c3cnccc3O)c3ccc(O)c(O)c3)C(=O)N12 (centres unmarked) [Example 184] | 6.25 µg/mL (≈ 9.66 µM) | 6.25 µg/mL (≈ 9.66 µM) | 12.5 µg/mL (≈ 19.3 µM) | 6.25 µg/mL (≈ 9.66 µM) | 50 µg/mL (≈ 77.3 µM) | 0.78 µg/mL (≈ 1.21 µM) | 0.78 µg/mL (≈ 1.21 µM) | 12.5 µg/mL (≈ 19.3 µM) |  |  |  |  |  |  |  | 
COc1ccc2ncc(C(=O)NC(C(=O)NC3C(=O)N4C(C(=O)O)=C(CSc5nnnn5C)CSC34)c3cccc(N)c3)c(O)c2n1 (centres unmarked) [Example 67] | 3.13 µg/mL (≈ 4.61 µM) | 3.13 µg/mL (≈ 4.61 µM) | 3.13 µg/mL (≈ 4.61 µM) | 1.56 µg/mL (≈ 2.3 µM) | 12.5 µg/mL (≈ 18.4 µM) | 0.78 µg/mL (≈ 1.15 µM) | 0.1 µg/mL (≈ 0.147 µM) | 3.13 µg/mL (≈ 4.61 µM) |  |  |  |  |  |  |  | 

— patent US4156724A, “N-acylamino-alpha-arylacetamido cephalosporins and antibacterial compositions and methods containing them” (Sumitomo Chemical Company, Limited, priority 1974, dated 1979)
